Results as given in patent US5792747A, “Highly potent agonists of growth hormone releasing hormone” (The Administrators of the Tulane Educational Fund, priority 1995, dated 1998).
Non-standard residues stand in square brackets, D forms with d. Residues, ends and D or L forms follow the SMILES beside them. No end group written: not given here. *: point of attachment. Desaminotyrosyl = O=C(CCc1ccc(O)cc1)*; Agmatine = N=C(N)NCCCCN*; Nle = CCCC[C@H](N)C(=O)O; Orn = NCCC[C@H](N)C(=O)O; Abu = CC[C@H](N)C(=O)O

Experiments:
[1] = tested on: superfused rat pituitary cell system; assay: GH release in superfused rat pituitary cell system (in vitro); format: cell-based; settings: 0.1-0.5 nM, 3 min administration, superfused rat pituitary cells
Experimental: The compounds of the present invention were tested both in vitro and in vivo. The levels of GH released in vivo by the synthetic peptides, following their intravenous (i.v.) or subcutaneous (sc.) injection in rats, are shown in Tables 2 and 3 respectively. The potencies of the peptides, based on 4-point assays, were calculated in all the Examples of this specification, by the factorial analyses of Bliss and Marks with 95% confidence limits.
Growth hormone releasing activity in vitro is assayed by using a superfused rat pituitary cell system as described in S. Vigh and A. V. Schally, Peptides 5, Suppl: 241-347, 1984, which is incorporated by reference herein. Each peptide, hGH-RH (1-29)NH2 (as control) and the synthetic peptide hGH-RH analogs of the present invention, is administered for 3 minutes (1 ml. perfusate) at various concentrations as shown below. Fractions of 1 ml are coIlected and the GH content in each is determined by RIA.

GH-deficient children = settings: subcutaneously twice a day; cited from earlier work

Molecule	Potency relative to hGH-RH(1-29)NH2 = 1 (GH release in vitro) [1]	share of GH-deficient children in whom linear growth was promoted (GH-deficient children)
CCCC[C@H](NC(=O)[C@@H](NC(=O)[C@H](CC(=O)O)NC(=O)[C@H](CCC(N)=O)NC(=O)[C@H](CC(C)C)NC(=O)[C@H](CC(C)C)NC(=O)[C@H](CCCN)NC(=O)[C@H](CCCNC(=N)N)NC(=O)[C@H](C)NC(=O)[C@H](CO)NC(=O)[C@H](CC(C)C)NC(=O)[C@H](CCC(N)=O)NC(=O)[C@H](CC)NC(=O)[C@H](CC(C)C)NC(=O)[C@@H](NC(=O)[C@H](CCCN)NC(=O)[C@H](CCCNC(=N)N)NC(=O)[C@H](Cc1ccc(O)cc1)NC(=O)[C@H](CO)NC(=O)[C@H](CC(N)=O)NC(=O)[C@@H](NC(=O)[C@H](Cc1ccccc1)NC(=O)[C@@H](NC(=O)[C@H](C)NC(=O)[C@H](CC(=O)O)NC(=O)[C@H](C)NC(=O)CCc1ccc(O)cc1)[C@@H](C)CC)[C@@H](C)O)C(C)C)[C@@H](C)CC)C(=O)N[C@@H](CO)C(=O)NCCCCNC(=N)N [Example I, (Dat^1,Orn ^12,21,Abu^15,Nle^27,Agm^29)hGH-RH(1-29)] (Desaminotyrosyl-ADAIFTNSYR[Orn]VL[Abu]QLSAR[Orn]LLQDI[Nle]S-Agmatine)	5.9	
CCCC[C@H](NC(=O)[C@@H](NC(=O)[C@H](CC(=O)O)NC(=O)[C@H](CCC(N)=O)NC(=O)[C@H](CC(C)C)NC(=O)[C@H](CC(C)C)NC(=O)[C@H](CCCN)NC(=O)[C@H](CCCNC(=N)N)NC(=O)[C@H](C)NC(=O)[C@H](CO)NC(=O)[C@H](CC(C)C)NC(=O)[C@H](CCC(N)=O)NC(=O)[C@H](CC)NC(=O)[C@H](CC(C)C)NC(=O)[C@@H](NC(=O)[C@H](CCCCN)NC(=O)[C@H](CCCNC(=N)N)NC(=O)[C@H](Cc1ccc(O)cc1)NC(=O)[C@H](CO)NC(=O)[C@H](CC(N)=O)NC(=O)[C@@H](NC(=O)[C@H](Cc1ccccc1)NC(=O)[C@@H](NC(=O)[C@H](C)NC(=O)[C@H](CC(=O)O)NC(=O)[C@H](C)NC(=O)CCc1ccc(O)cc1)[C@@H](C)CC)[C@@H](C)O)C(C)C)[C@@H](C)CC)C(=O)N[C@@H](CO)C(=O)NCCCCNC(=N)N [Example II, (Dat^1,Abu^15,Orn^21,Nle^27,Agm^29)hGH-RH(1-29)] (Desaminotyrosyl-ADAIFTNSYRKVL[Abu]QLSAR[Orn]LLQDI[Nle]S-Agmatine)	6.4	
CCCC[C@H](NC(=O)[C@@H](NC(=O)[C@H](CC(=O)O)NC(=O)[C@H](CCC(N)=O)NC(=O)[C@H](CC(C)C)NC(=O)[C@H](CC(C)C)NC(=O)[C@H](CCCCN)NC(=O)[C@H](CCCNC(=N)N)NC(=O)[C@H](C)NC(=O)[C@H](CO)NC(=O)[C@H](CC(C)C)NC(=O)[C@H](CCC(N)=O)NC(=O)[C@H](CC)NC(=O)[C@H](CC(C)C)NC(=O)[C@@H](NC(=O)[C@H](CCCN)NC(=O)[C@H](CCCNC(=N)N)NC(=O)[C@H](Cc1ccc(O)cc1)NC(=O)[C@H](CO)NC(=O)[C@H](CC(N)=O)NC(=O)[C@@H](NC(=O)[C@H](Cc1ccccc1)NC(=O)[C@@H](NC(=O)[C@H](C)NC(=O)[C@H](CC(=O)O)NC(=O)[C@H](C)NC(=O)CCc1ccc(O)cc1)[C@@H](C)CC)[C@@H](C)O)C(C)C)[C@@H](C)CC)C(=O)N[C@@H](CO)C(=O)NCCCCNC(=N)N [Example III, (Dat^1,Orn^12,Abu^15,Nle^27,Agm^29)hGH-RH(1-29)] (Desaminotyrosyl-ADAIFTNSYR[Orn]VL[Abu]QLSARKLLQDI[Nle]S-Agmatine)	3.8	
hGH-RH(1-29)NH2 (YADAIFTNSYRKVLGQLSARKLLQDIMSR-NH2; UniProt P01286 32-60, looked up, fragment)		approximately 50%
